The NIST ThermoML archive (doi:10.1016/j.jct.2013.01.009)
Where “and” joins values, the source holds several entries; their conditions need not be identical. Identical values can stand only once. ± gives the expanded uncertainty stated by the source.

How the values were obtained:
[1] = for vapor or sublimation pressure: Closed cell (Static) method
[2] = molar heat capacity at constant pressure; conditions: 101.33 kPa
[3] = Molar enthalpy of transition or fusion; conditions: Crystal; DSC
[4] = molar enthalpy of vaporization or sublimation; conditions: 298.15 K; Crystal; Static calorimetry

C=C1CC[C@H]2C[C@@H]1C2(C)C [(1S,5S)-6,6-dimethyl-2-methylenebicyclo[3.1.1]heptane]
[1], Liquid
Conditions | vapor or sublimation pressure
248.13 K | 0.00844 ± 0.00034 kPa and 0.00845 ± 0.00034 kPa
253.14 K | 0.01345 ± 0.00052 kPa and 0.01346 ± 0.00052 kPa
258.15 K | 0.021 ± 0.00067 kPa and 0.02101 ± 0.00067 kPa
263.15 K | 0.03214 ± 0.0009 kPa and 0.03213 ± 0.0009 kPa
268.15 K | 0.04828 ± 0.0012 kPa and 0.04829 ± 0.0012 kPa
273.65 K | 0.07411 ± 0.0018 kPa and 0.07418 ± 0.0018 kPa
278.15 K | 0.1037 ± 0.0024 kPa and 0.1038 ± 0.0024 kPa
283.15 K | 0.1485 ± 0.0031 kPa
288.15 K | 0.2093 ± 0.0042 kPa and 0.2094 ± 0.0042 kPa and 0.2095 ± 0.0042 kPa
293.15 K | 0.291 ± 0.0056 kPa and 0.2911 ± 0.0056 kPa
298.15 K | 0.4 ± 0.0075 kPa
303.15 K | 0.5419 ± 0.0099 kPa and 0.542 ± 0.0099 kPa
308.15 K | 0.7254 ± 0.013 kPa and 0.7255 ± 0.013 kPa and 0.7256 ± 0.013 kPa

[2], Liquid, Large sample (1 g) DSC
Conditions | molar heat capacity at constant pressure [J/K/mol]
273.4 K | 230.06 ± 4
278.5 K | 232.64 ± 4
283.6 K | 235.22 ± 4.1
288.7 K | 237.96 ± 4.2
293.8 K | 240.62 ± 4.2
298.9 K | 243.36 ± 4.2
304 K | 245.94 ± 4.2
309.1 K | 248.19 ± 4.3
314.2 K | 251.01 ± 4.3
319.4 K | 254.17 ± 4.4
324.5 K | 256.75 ± 4.4
329.6 K | 260.08 ± 4.5
334.7 K | 262.9 ± 4.6
339.8 K | 266.4 ± 4.7
344.9 K | 269.47 ± 4.7
350 K | 272.05 ± 4.7
355.1 K | 275.21 ± 4.7

CC1=C[C@H](O)[C@H]2C[C@@H]1C2(C)C [(-)-cis-verbenol]
[1]
Conditions | Normal melting temperature, Crystal [°C] | vapor or sublimation pressure, 273.15 K | vapor or sublimation pressure, 278.15 K | vapor or sublimation pressure, 283.15 K [kPa] | vapor or sublimation pressure, 288.15 K | vapor or sublimation pressure, 293.15 K | vapor or sublimation pressure, 298.15 K | vapor or sublimation pressure, 303.15 K [kPa] | vapor or sublimation pressure, 308.15 K | vapor or sublimation pressure, 313.15 K
Crystal | – | 0.00025 ± 9e-05 kPa and 0.00026 ± 9e-05 kPa | 0.00049 ± 0.0001 kPa and 0.0005 ± 0.0001 kPa | 0.00092 ± 0.0001 | 0.00169 ± 0.00012 kPa and 0.00168 ± 0.00012 kPa | 0.003 ± 0.00016 kPa and 0.00301 ± 0.00016 kPa | 0.00523 ± 0.00023 kPa and 0.00528 ± 0.00023 kPa and 0.00529 ± 0.00023 kPa | 0.00906 ± 0.00037 | 0.01518 ± 0.00055 kPa and 0.01523 ± 0.00055 kPa and 0.01524 ± 0.00055 kPa | 0.02515 ± 0.0007 kPa and 0.02516 ± 0.0007 kPa and 0.02517 ± 0.0007 kPa
DTA | 70.5 ± 0.7 | – | – | – | – | – | – | – | – | –

Conditions | Molar enthalpy of transition or fusion [kcal/mol] | molar enthalpy [kcal/mol]
[3] | 4.18 ± 0.167 | –
[4] | – | 19.1 ± 0.311

[2]
Conditions | molar heat capacity at constant pressure [J/K/mol]
273.4 K, Crystal, Large sample (1 g) DSC | 217.51 ± 3.7
278.5 K, Crystal, Large sample (1 g) DSC | 222.58 ± 3.8
283.6 K, Crystal, Large sample (1 g) DSC | 228.98 ± 4
288.7 K, Crystal, Large sample (1 g) DSC | 235.38 ± 4.1
293.8 K, Crystal, Large sample (1 g) DSC | 242.28 ± 4.2
298.15 K, Crystal, Drop calorimetry | 233.55 ± 24
298.9 K, Crystal, Large sample (1 g) DSC | 250.18 ± 4.3
304 K, Crystal, Large sample (1 g) DSC | 259 ± 4.5
309.1 K, Crystal, Large sample (1 g) DSC | 269.14 ± 4.7
344.9 K, Liquid, Large sample (1 g) DSC | 372.99 ± 19
350 K, Liquid, Large sample (1 g) DSC | 377.14 ± 20
355.1 K, Liquid, Large sample (1 g) DSC | 381.47 ± 20
